Assay results published in PMC12410356 (International Journal for Parasitology: Drugs and Drug …, 2025).

Test system: E. multilocularis metacestode vesicles
Assay: Metacestode vesicle viability assay (ATP, CellTiter-Glo)
Format: cell-based, Echinococcus multilocularis
Conditions: 10 µM
Description: Viability was assessed after 12 days using the same metacestode vesicles as for the PGI release assay. Triton X-100 was added to each well to a final concentration of 0.1 %. Subsequently the metacestode vesicles were broken mechanically and 50 μL of the supernatant was mixed with 50 μL of CellTiter-Glo® buffer (Promega, Dübendorf, Switzerland). Measurements were performed on a HIDEX Sense microplate reader.

SMILES	Viability d12 (relative viability) [%]
COc1cc(NCc2ccc3nc(N)nc(N)c3c2C)cc(OC)c1OC [MMV1580173]	66.8811

Same assay, conditions: confirmation screen, 10 μM, triplicates, mean, 12 days

SMILES	Viability d12 (relative viability) [%]
O=C(CCCC(F)(F)F)N1CCC(c2nc(-c3nccs3)no2)CC1 [MMV1582491]	57.90
Cc1ccc(C)c(OCCCCCCN2C[C@H](O)[C@@H](O)[C@H](O)[C@H]2CO)c1 [MMV1634401]	146.24
O=c1nc(N2CCN(CC3CCCCC3)CC2)sc2c([N+](=O)[O-])cc(C(F)(F)F)cc12 [MMV1578885]	97.20
Oc1cccc(C(Nc2nccs2)c2ccc3cccnc3c2O)c1 (stereo not drawn) [MMV642550]	142.26

Same assay, conditions: overview screen, 10 μM, singlets, 12 days, relative to DMSO control

SMILES	Viability d12 (relative viability) [%]
CC(=N)N1CC[C@H](SC2=C(C(=O)O)N3C(=O)[C@@H]([C@@H](C)O)[C@H]3C2)C1 [MMV1582382]	19.8723
Cc1nc(-c2ccc(C3N(C)c4ccc(F)cc4C(=O)N3c3ccccc3)s2)cs1 (stereo not drawn) [MMV1582492]	101.198
O=C(CCCC(F)(F)F)N1CCC(c2nc(-c3nccs3)no2)CC1 [MMV1582491]	18.4528
O=C(NC12CC3CC(CC(C3)C1)C2)c1cc2ccccc2[nH]1 [MMV1578577]	82.8787
Cc1ccc(C)c(OCCCCCCN2C[C@H](O)[C@@H](O)[C@H](O)[C@H]2CO)c1 [MMV1634401]	26.5643
C[C@@H](O)[C@H](N)C(=O)NS(=O)(=O)c1cccc(-c2ccc3[nH]ncc3c2)c1.Cl.Cl [MMV1582494]	90.2603
CCOc1noc2cc(OCCC3CCN(c4ccc(C)nn4)CC3)ccc12 [MMV1634071]	88.166
O=c1nc(N2CCN(CC3CCCCC3)CC2)sc2c([N+](=O)[O-])cc(C(F)(F)F)cc12 [MMV1578885]	20.6104
COc1c(NC(=O)[C@H]2CC[C@@H](COc3ccc([N+](=O)[O-])cc3)CC2)c(F)cc2c(=O)c(C(=O)O)cn(C3CC3)c12 [MMV1633965]	49.6807
c1cc(CN2CCCNCCNCCCNCC2)ccc1CN1CCCNCCNCCCNCC1 [MMV1580502]	124.773
COc1ccc2c(c1)cc(CNC(=O)c1cc3ccccc3o1)n2CC(=O)O [MMV1581553]	73.1434
Nc1ccc2oc(=O)ccc2c1I [MMV1581378]	90.9948
CC(=O)N1c2ccccc2NC2=C(C(=O)CC(C)(C)C2)C1c1ccc(OCc2ccccc2)cc1 (stereo not drawn) [MMV1580503]	72.2027
Oc1cccc(C(Nc2nccs2)c2ccc3cccnc3c2O)c1 (stereo not drawn) [MMV642550]	17.7096

Test system: E. multilocularis metacestode vesicles
Assay: Phosphoglucose isomerase (PGI) release assay (damage-marker release) on metacestode vesicles
Format: cell-based, Echinococcus multilocularis
Conditions: confirmation screen, 10 μM, triplicates, mean, 5 days

SMILES	PGI d5 (relative PGI release) [%]
O=C(CCCC(F)(F)F)N1CCC(c2nc(-c3nccs3)no2)CC1 [MMV1582491]	-0.08
Cc1ccc(C)c(OCCCCCCN2C[C@H](O)[C@@H](O)[C@H](O)[C@H]2CO)c1 [MMV1634401]	1.51
O=c1nc(N2CCN(CC3CCCCC3)CC2)sc2c([N+](=O)[O-])cc(C(F)(F)F)cc12 [MMV1578885]	-0.21
Oc1cccc(C(Nc2nccs2)c2ccc3cccnc3c2O)c1 (stereo not drawn) [MMV642550]	0.17

Same assay, conditions: confirmation screen, 10 μM, triplicates, mean, 12 days

SMILES	PGI d12 (relative PGI release) [%]
O=C(CCCC(F)(F)F)N1CCC(c2nc(-c3nccs3)no2)CC1 [MMV1582491]	-0.04
Cc1ccc(C)c(OCCCCCCN2C[C@H](O)[C@@H](O)[C@H](O)[C@H]2CO)c1 [MMV1634401]	2.13
O=c1nc(N2CCN(CC3CCCCC3)CC2)sc2c([N+](=O)[O-])cc(C(F)(F)F)cc12 [MMV1578885]	0.0323
Oc1cccc(C(Nc2nccs2)c2ccc3cccnc3c2O)c1 (stereo not drawn) [MMV642550]	0.81

Same assay, conditions: overview screen, 10 μM, singlets, 5 days, relative to 0.1 % Triton X-100, DMSO subtracted

SMILES	PGI d5 (relative PGI release) [%]
CC(=N)N1CC[C@H](SC2=C(C(=O)O)N3C(=O)[C@@H]([C@@H](C)O)[C@H]3C2)C1 [MMV1582382]	-2.073
Cc1nc(-c2ccc(C3N(C)c4ccc(F)cc4C(=O)N3c3ccccc3)s2)cs1 (stereo not drawn) [MMV1582492]	-1.6173
O=C(CCCC(F)(F)F)N1CCC(c2nc(-c3nccs3)no2)CC1 [MMV1582491]	0.6914
O=C(NC12CC3CC(CC(C3)C1)C2)c1cc2ccccc2[nH]1 [MMV1578577]	-0.2186
Cc1ccc(C)c(OCCCCCCN2C[C@H](O)[C@@H](O)[C@H](O)[C@H]2CO)c1 [MMV1634401]	8.592
C[C@@H](O)[C@H](N)C(=O)NS(=O)(=O)c1cccc(-c2ccc3[nH]ncc3c2)c1.Cl.Cl [MMV1582494]	-2.197
CCOc1noc2cc(OCCC3CCN(c4ccc(C)nn4)CC3)ccc12 [MMV1634071]	0.1516
O=c1nc(N2CCN(CC3CCCCC3)CC2)sc2c([N+](=O)[O-])cc(C(F)(F)F)cc12 [MMV1578885]	15.7367
COc1c(NC(=O)[C@H]2CC[C@@H](COc3ccc([N+](=O)[O-])cc3)CC2)c(F)cc2c(=O)c(C(=O)O)cn(C3CC3)c12 [MMV1633965]	0.7075
c1cc(CN2CCCNCCNCCCNCC2)ccc1CN1CCCNCCNCCCNCC1 [MMV1580502]	-0.2909
COc1ccc2c(c1)cc(CNC(=O)c1cc3ccccc3o1)n2CC(=O)O [MMV1581553]	-2.902
Nc1ccc2oc(=O)ccc2c1I [MMV1581378]	0.09331
CC(=O)N1c2ccccc2NC2=C(C(=O)CC(C)(C)C2)C1c1ccc(OCc2ccccc2)cc1 (stereo not drawn) [MMV1580503]	1.18
Oc1cccc(C(Nc2nccs2)c2ccc3cccnc3c2O)c1 (stereo not drawn) [MMV642550]	8.475
COc1cc(NCc2ccc3nc(N)nc(N)c3c2C)cc(OC)c1OC [MMV1580173]	-1.642

Same assay, conditions: overview screen, 10 μM, singlets, 12 days, relative to 0.1 % Triton X-100, DMSO subtracted

SMILES	PGI d12 (relative PGI release) [%]
CC(=N)N1CC[C@H](SC2=C(C(=O)O)N3C(=O)[C@@H]([C@@H](C)O)[C@H]3C2)C1 [MMV1582382]	-11.6677
Cc1nc(-c2ccc(C3N(C)c4ccc(F)cc4C(=O)N3c3ccccc3)s2)cs1 (stereo not drawn) [MMV1582492]	-12.6909
O=C(CCCC(F)(F)F)N1CCC(c2nc(-c3nccs3)no2)CC1 [MMV1582491]	59.8611
O=C(NC12CC3CC(CC(C3)C1)C2)c1cc2ccccc2[nH]1 [MMV1578577]	-2.179
Cc1ccc(C)c(OCCCCCCN2C[C@H](O)[C@@H](O)[C@H](O)[C@H]2CO)c1 [MMV1634401]	62.8936
C[C@@H](O)[C@H](N)C(=O)NS(=O)(=O)c1cccc(-c2ccc3[nH]ncc3c2)c1.Cl.Cl [MMV1582494]	-25.2892
CCOc1noc2cc(OCCC3CCN(c4ccc(C)nn4)CC3)ccc12 [MMV1634071]	-20.1339
O=c1nc(N2CCN(CC3CCCCC3)CC2)sc2c([N+](=O)[O-])cc(C(F)(F)F)cc12 [MMV1578885]	89.9274
COc1c(NC(=O)[C@H]2CC[C@@H](COc3ccc([N+](=O)[O-])cc3)CC2)c(F)cc2c(=O)c(C(=O)O)cn(C3CC3)c12 [MMV1633965]	-11.0947
c1cc(CN2CCCNCCNCCCNCC2)ccc1CN1CCCNCCNCCCNCC1 [MMV1580502]	2.621
COc1ccc2c(c1)cc(CNC(=O)c1cc3ccccc3o1)n2CC(=O)O [MMV1581553]	-25.8097
Nc1ccc2oc(=O)ccc2c1I [MMV1581378]	-19.2105
CC(=O)N1c2ccccc2NC2=C(C(=O)CC(C)(C)C2)C1c1ccc(OCc2ccccc2)cc1 (stereo not drawn) [MMV1580503]	-18.9728
Oc1cccc(C(Nc2nccs2)c2ccc3cccnc3c2O)c1 (stereo not drawn) [MMV642550]	88.2133
COc1cc(NCc2ccc3nc(N)nc(N)c3c2C)cc(OC)c1OC [MMV1580173]	-23.9013
